{
  "source": "ChEMBL document CHEMBL1955732",
  "about": "“Synthesis and biological evaluation of 21-arylidenepregnenolone derivatives as neuroprotective agents” (Bioorg Med Chem Lett, 2012)",
  "note": "Activity calls are given as the source filed them. The rule behind the calls is not given here.",
  "data": [
    {"system": "not listed separately", "experiment": "Solubility of the compound at 1 uM", "format": "physicochemical", "details": "not given", "values": [
      {"smiles": "C[C@]12CC[C@H]3[C@@H](CC=C4C[C@@H](O)CC[C@@]43C)[C@@H]1CC[C@@H]2C(=O)/C=C/c1ccc(Cl)cc1", "solubility": "Insoluble"},
      {"smiles": "C[C@]12CC[C@H]3[C@@H](CC=C4C[C@@H](O)CC[C@@]43C)[C@@H]1CC[C@@H]2C(=O)/C=C/c1ccc(Br)cc1", "solubility": "Insoluble"},
      {"smiles": "C[C@]12CC[C@H]3[C@@H](CC=C4C[C@@H](O)CC[C@@]43C)[C@@H]1CC[C@@H]2C(=O)/C=C/c1ccc(C#N)cc1", "solubility": "Insoluble"}
    ]},
    {"system": "PC-12", "experiment": "Neuroprotective activity against Abeta25-35-induced […] cells assessed as cell viability at 10 uM preincubated for 2 hrs prior Abeta25-35 challenge measured after 24 hrs by MTT assay", "format": "functional", "details": "Rattus norvegicus, read-out: Activity", "units": {"viability at 10 µM": "%"}, "values": [
      {"smiles": "COc1ccccc1/C=C/C(=O)[C@H]1CC[C@H]2[C@@H]3CC=C4C[C@@H](O)CC[C@]4(C)[C@H]3CC[C@]12C", "viability at 10 µM": 74.5},
      {"smiles": "Cc1ccccc1/C=C/C(=O)[C@H]1CC[C@H]2[C@@H]3CC=C4C[C@@H](O)CC[C@]4(C)[C@H]3CC[C@]12C", "viability at 10 µM": 50.4},
      {"smiles": "CCOc1ccccc1/C=C/C(=O)[C@H]1CC[C@H]2[C@@H]3C[C@@H]4O[C@@]45C[C@@H](O)CC[C@]5(C)[C@H]3CC[C@]12C", "viability at 10 µM": 49.5},
      {"smiles": "C[C@]12CC[C@H]3[C@@H](CC=C4C[C@@H](O)CC[C@@]43C)[C@@H]1CC[C@@H]2C(=O)/C=C/c1ccco1", "viability at 10 µM": 36.9},
      {"smiles": "COc1ccccc1/C=C/C(=O)[C@H]1CC[C@H]2[C@@H]3C[C@@H]4O[C@@]45C[C@@H](O)CC[C@]5(C)[C@H]3CC[C@]12C", "viability at 10 µM": 73.7},
      {"smiles": "C[C@]12CC[C@H]3[C@@H](C[C@@H]4O[C@@]45C[C@@H](O)CC[C@]35C)[C@@H]1CC[C@@H]2C(=O)/C=C/c1ccc(Br)cc1", "viability at 10 µM": 32.5},
      {"smiles": "C[C@]12CC[C@H]3[C@@H](CC=C4C[C@@H](O)CC[C@@]43C)[C@@H]1CC[C@@H]2C(=O)/C=C/c1cccc([N+](=O)[O-])c1", "viability at 10 µM": 37.8}
    ]},
    {"system": "PC-12", "experiment": "(§1) Neuroprotective activity against Abeta25-35-induced […] cells assessed as cell viability at 1 uM preincubated for 2 hrs prior Abeta25-35 challenge measured after 24 hrs by MTT assay", "format": "functional", "details": "Rattus norvegicus", "values": [
      {"smiles": "Cc1ccccc1/C=C/C(=O)[C@H]1CC[C@H]2[C@@H]3CC=C4C[C@@H](O)CC[C@]4(C)[C@H]3CC[C@]12C", "Activity": "inactive"},
      {"smiles": "CCOc1ccccc1/C=C/C(=O)[C@H]1CC[C@H]2[C@@H]3C[C@@H]4O[C@@]45C[C@@H](O)CC[C@]5(C)[C@H]3CC[C@]12C", "Activity": "inactive"},
      {"smiles": "COc1ccccc1/C=C/C(=O)[C@H]1CC[C@H]2[C@@H]3C[C@@H]4O[C@@]45C[C@@H](O)CC[C@]5(C)[C@H]3CC[C@]12C", "Activity": "inactive"}
    ]},
    {"system": "PC-12", "experiment": "as §1", "format": "functional", "details": "Rattus norvegicus, read-out: Activity", "units": {"viability at 1 µM": "%"}, "values": [
      {"smiles": "COc1ccccc1/C=C/C(=O)[C@H]1CC[C@H]2[C@@H]3CC=C4C[C@@H](O)CC[C@]4(C)[C@H]3CC[C@]12C", "viability at 1 µM": 64.1},
      {"smiles": "C[C@]12CC[C@H]3[C@@H](CC=C4C[C@@H](O)CC[C@@]43C)[C@@H]1CC[C@@H]2C(=O)/C=C/c1ccco1", "viability at 1 µM": 52.5},
      {"smiles": "C[C@]12CC[C@H]3[C@@H](C[C@@H]4O[C@@]45C[C@@H](O)CC[C@]35C)[C@@H]1CC[C@@H]2C(=O)/C=C/c1ccc(Br)cc1", "viability at 1 µM": 50.1},
      {"smiles": "C[C@]12CC[C@H]3[C@@H](CC=C4C[C@@H](O)CC[C@@]43C)[C@@H]1CC[C@@H]2C(=O)/C=C/c1cccc([N+](=O)[O-])c1", "viability at 1 µM": 51.2}
    ]},
    {"system": "PC-12", "experiment": "Neuroprotective activity against H2O2-induced […] cells assessed as cell viability at 10 uM preincubated for 2 hrs prior H2O2 challenge measured after 24 hrs by MTT assay", "format": "functional", "details": "Rattus norvegicus, read-out: Activity", "units": {"viability at 10 µM": "%"}, "values": [
      {"smiles": "COc1ccccc1/C=C/C(=O)[C@H]1CC[C@H]2[C@@H]3CC=C4C[C@@H](O)CC[C@]4(C)[C@H]3CC[C@]12C", "viability at 10 µM": 83.7}
    ]},
    {"system": "SH-SY5Y", "experiment": "Neuroprotective activity against oxygen-glucose deprivation-induced human SH-SY5Y cells assessed as cell viability at 10 uM preincubated for 2 hrs prior oxygen-glucose deprivation challenge for 1 hr measured after 24 hrs incubation under normal condition by MTT assay", "format": "functional", "details": "read-out: Activity", "units": {"viability at 10 µM": "%"}, "values": [
      {"smiles": "COc1ccccc1/C=C/C(=O)[C@H]1CC[C@H]2[C@@H]3C[C@@H]4O[C@@]45C[C@@H](O)CC[C@]5(C)[C@H]3CC[C@]12C", "viability at 10 µM": 98.7}
    ]},
    {"system": "SH-SY5Y", "experiment": "Neuroprotective activity against oxygen-glucose deprivation-induced human SH-SY5Y cells assessed as cell viability at 5 uM preincubated for 2 hrs prior oxygen-glucose deprivation challenge for 1 hr measured after 24 hrs incubation under normal condition by MTT assay", "format": "functional", "details": "read-out: Activity", "units": {"viability at 5 µM": "%"}, "values": [
      {"smiles": "Cc1ccccc1/C=C/C(=O)[C@H]1CC[C@H]2[C@@H]3CC=C4C[C@@H](O)CC[C@]4(C)[C@H]3CC[C@]12C", "viability at 5 µM": 84.8},
      {"smiles": "CCOc1ccccc1/C=C/C(=O)[C@H]1CC[C@H]2[C@@H]3C[C@@H]4O[C@@]45C[C@@H](O)CC[C@]5(C)[C@H]3CC[C@]12C", "viability at 5 µM": 98.8}
    ]},
    {"system": "PC-12", "experiment": "Cytotoxicity against […] cells at 10 uM after 24 hrs by MTT assay", "format": "cell-based", "details": "rat, pc-12, 24 h", "values": [
      {"smiles": "Cc1ccccc1/C=C/C(=O)[C@H]1CC[C@H]2[C@@H]3CC=C4C[C@@H](O)CC[C@]4(C)[C@H]3CC[C@]12C", "Activity": "Toxic"},
      {"smiles": "CCOc1ccccc1/C=C/C(=O)[C@H]1CC[C@H]2[C@@H]3C[C@@H]4O[C@@]45C[C@@H](O)CC[C@]5(C)[C@H]3CC[C@]12C", "Activity": "Toxic"},
      {"smiles": "C[C@]12CC[C@H]3[C@@H](CC=C4C[C@@H](O)CC[C@@]43C)[C@@H]1CC[C@@H]2C(=O)/C=C/c1ccco1", "Activity": "Toxic"},
      {"smiles": "C[C@]12CC[C@H]3[C@@H](C[C@@H]4O[C@@]45C[C@@H](O)CC[C@]35C)[C@@H]1CC[C@@H]2C(=O)/C=C/c1ccc(Br)cc1", "Activity": "Toxic"},
      {"smiles": "C[C@]12CC[C@H]3[C@@H](CC=C4C[C@@H](O)CC[C@@]43C)[C@@H]1CC[C@@H]2C(=O)/C=C/c1cccc([N+](=O)[O-])c1", "Activity": "Toxic"}
    ]},
    {"system": "PC-12", "experiment": "Cytotoxicity against […] cells at 1 uM after 24 hrs by MTT assay", "format": "cell-based", "details": "rat, pc-12, 24 h", "values": [
      {"smiles": "C[C@]12CC[C@H]3[C@@H](CC=C4C[C@@H](O)CC[C@@]43C)[C@@H]1CC[C@@H]2C(=O)/C=C/c1ccco1", "Activity": "Toxic"},
      {"smiles": "C[C@]12CC[C@H]3[C@@H](C[C@@H]4O[C@@]45C[C@@H](O)CC[C@]35C)[C@@H]1CC[C@@H]2C(=O)/C=C/c1ccc(Br)cc1", "Activity": "Toxic"},
      {"smiles": "C[C@]12CC[C@H]3[C@@H](CC=C4C[C@@H](O)CC[C@@]43C)[C@@H]1CC[C@@H]2C(=O)/C=C/c1cccc([N+](=O)[O-])c1", "Activity": "Toxic"}
    ]},
    {"system": "not listed separately", "experiment": "Solubility of the compound at 10 uM", "format": "physicochemical", "details": "not given", "values": [
      {"smiles": "C[C@]12CC[C@H]3[C@@H](CC=C4C[C@@H](O)CC[C@@]43C)[C@@H]1CC[C@@H]2C(=O)/C=C/c1ccc(Cl)cc1", "solubility": "Insoluble"},
      {"smiles": "C[C@]12CC[C@H]3[C@@H](CC=C4C[C@@H](O)CC[C@@]43C)[C@@H]1CC[C@@H]2C(=O)/C=C/c1ccc(Br)cc1", "solubility": "Insoluble"},
      {"smiles": "C[C@]12CC[C@H]3[C@@H](CC=C4C[C@@H](O)CC[C@@]43C)[C@@H]1CC[C@@H]2C(=O)/C=C/c1ccc(C#N)cc1", "solubility": "Insoluble"}
    ]}
  ]
}
